PMC7156458, “Synthetic biology based construction of biological activity-related library of fungal decalin-containing diterpenoid pyrones” (Nature Communications, 2020)

Target: Aβ42 (Homo sapiens, UniProt P05067)
Experiment: Th-T (thioflavin-T) assay of Aβ42 aggregation
Type: biochemical
Conditions: for Th-T fluorescence, mean of three wells: compound at 50

Sequence of Aβ42 (P05067 672-713): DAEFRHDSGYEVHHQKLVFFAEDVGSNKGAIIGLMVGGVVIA

SMILES: C=C1CCC2C(C)(CCC=C(C)C)C(O)CCC2(C)C1Cc1c(OC)oc(C)c(C(=O)OC)c1=O (stereo not drawn) [Compound 14]
- Th-T fluorescence, mean of three wells (reading M54 of time course): 4.776
- Th-T fluorescence, mean of three wells (reading M55 of time course): 4.689
- Th-T fluorescence, mean of three wells (reading M56 of time course): 4.625
- Th-T fluorescence, mean of three wells (reading M57 of time course): 4.524
- Th-T fluorescence, mean of three wells (reading M58 of time course): 4.45
- Th-T fluorescence, mean of three wells (reading M59 of time course): 4.296
- Th-T fluorescence, mean of three wells (reading M60 of time course): 4.2063
- Th-T fluorescence, mean of three wells (reading M61 of time course): 4.042
- Th-T fluorescence, mean of three wells (reading M62 of time course): 3.946
- Th-T fluorescence of Aβ42 with compound, mean of three wells (Fig. 7a source data) (concentration 10, unit not given, time-course reading M129): 2.897
- Th-T fluorescence of Aβ42 with compound, mean of three wells (Fig. 7a source data) (concentration 10, unit not given, time-course reading M130): 2.933
- Th-T fluorescence of Aβ42 with compound, mean of three wells (Fig. 7a source data) (concentration 10, unit not given, time-course reading M131): 2.925
- Th-T fluorescence of Aβ42 with compound, mean of three wells (Fig. 7a source data) (concentration 10, unit not given, time-course reading M132): 2.913
- Th-T fluorescence of Aβ42 with compound, mean of three wells (Fig. 7a source data) (concentration 10, unit not given, time-course reading M133): 2.914
- Th-T fluorescence of Aβ42 with compound, mean of three wells (Fig. 7a source data) (concentration 10, unit not given, time-course reading M134): 2.928
- Th-T fluorescence of Aβ42 with compound, mean of three wells (Fig. 7a source data) (concentration 10, unit not given, time-course reading M135): 2.926
- Th-T fluorescence of Aβ42 with compound, mean of three wells (Fig. 7a source data) (concentration 10, unit not given, time-course reading M136): 2.935
- Th-T fluorescence of Aβ42 with compound, mean of three wells (Fig. 7a source data) (concentration 10, unit not given, time-course reading M137): 2.902
- Th-T fluorescence of Aβ42 with compound, mean of three wells (Fig. 7a source data) (concentration 10, unit not given, time-course reading M138): 2.929
- Th-T fluorescence of Aβ42 with compound, mean of three wells (Fig. 7a source data) (concentration 10, unit not given, time-course reading M139): 2.934
- Th-T fluorescence of Aβ42 with compound, mean of three wells (Fig. 7a source data) (concentration 10, unit not given, time-course reading M140): 2.924
- Th-T fluorescence of Aβ42 with compound, mean of three wells (Fig. 7a source data) (concentration 10, unit not given, time-course reading M141): 2.927
- Th-T fluorescence of Aβ42 with compound, mean of three wells (Fig. 7a source data) (concentration 10, unit not given, time-course reading M142): 2.953
- Th-T fluorescence of Aβ42 with compound, mean of three wells (Fig. 7a source data) (concentration 10, unit not given, time-course reading M143): 2.943
- Th-T fluorescence of Aβ42 with compound, mean of three wells (Fig. 7a source data) (concentration 10, unit not given, time-course reading M144): 2.936
- Th-T fluorescence of Aβ42 with compound, mean of three wells (Fig. 7a source data) (concentration 10, unit not given, time-course reading M145): 2.952
- Th-T fluorescence of Aβ42 with compound, mean of three wells (Fig. 7a source data) (concentration 20, unit not given, time-course reading M129): 1.587
- Th-T fluorescence of Aβ42 with compound, mean of three wells (Fig. 7a source data) (concentration 20, unit not given, time-course reading M130): 1.596
- Th-T fluorescence of Aβ42 with compound, mean of three wells (Fig. 7a source data) (concentration 20, unit not given, time-course reading M131): 1.618
- Th-T fluorescence of Aβ42 with compound, mean of three wells (Fig. 7a source data) (concentration 20, unit not given, time-course reading M132): 1.578
- Th-T fluorescence of Aβ42 with compound, mean of three wells (Fig. 7a source data) (concentration 20, unit not given, time-course reading M133): 1.602
- Th-T fluorescence of Aβ42 with compound, mean of three wells (Fig. 7a source data) (concentration 20, unit not given, time-course reading M134): 1.594
- Th-T fluorescence of Aβ42 with compound, mean of three wells (Fig. 7a source data) (concentration 20, unit not given, time-course reading M135): 1.594
- Th-T fluorescence of Aβ42 with compound, mean of three wells (Fig. 7a source data) (concentration 20, unit not given, time-course reading M136): 1.5818
- Th-T fluorescence of Aβ42 with compound, mean of three wells (Fig. 7a source data) (concentration 20, unit not given, time-course reading M137): 1.578
- Th-T fluorescence of Aβ42 with compound, mean of three wells (Fig. 7a source data) (concentration 20, unit not given, time-course reading M138): 1.586
- Th-T fluorescence of Aβ42 with compound, mean of three wells (Fig. 7a source data) (concentration 20, unit not given, time-course reading M139): 1.563
- Th-T fluorescence of Aβ42 with compound, mean of three wells (Fig. 7a source data) (concentration 20, unit not given, time-course reading M140): 1.578
- Th-T fluorescence of Aβ42 with compound, mean of three wells (Fig. 7a source data) (concentration 20, unit not given, time-course reading M141): 1.561
- Th-T fluorescence of Aβ42 with compound, mean of three wells (Fig. 7a source data) (concentration 20, unit not given, time-course reading M142): 1.586
- Th-T fluorescence of Aβ42 with compound, mean of three wells (Fig. 7a source data) (concentration 20, unit not given, time-course reading M143): 1.575
- Th-T fluorescence of Aβ42 with compound, mean of three wells (Fig. 7a source data) (concentration 20, unit not given, time-course reading M144): 1.583
- Th-T fluorescence of Aβ42 with compound, mean of three wells (Fig. 7a source data) (concentration 20, unit not given, time-course reading M145): 1.572
- Th-T fluorescence of Aβ42 with compound, mean of three wells (Fig. 7a source data) (concentration 50, unit not given, time-course reading M129): 0.8842
- Th-T fluorescence of Aβ42 with compound, mean of three wells (Fig. 7a source data) (concentration 50, unit not given, time-course reading M130): 0.8634
- Th-T fluorescence of Aβ42 with compound, mean of three wells (Fig. 7a source data) (concentration 50, unit not given, time-course reading M131): 0.8505
- Th-T fluorescence of Aβ42 with compound, mean of three wells (Fig. 7a source data) (concentration 50, unit not given, time-course reading M132): 0.8369
- Th-T fluorescence of Aβ42 with compound, mean of three wells (Fig. 7a source data) (concentration 50, unit not given, time-course reading M133): 0.8131
- Th-T fluorescence of Aβ42 with compound, mean of three wells (Fig. 7a source data) (concentration 50, unit not given, time-course reading M134): 0.8297
- Th-T fluorescence of Aβ42 with compound, mean of three wells (Fig. 7a source data) (concentration 50, unit not given, time-course reading M135): 0.8031
- Th-T fluorescence of Aβ42 with compound, mean of three wells (Fig. 7a source data) (concentration 50, unit not given, time-course reading M136): 0.8035
- Th-T fluorescence of Aβ42 with compound, mean of three wells (Fig. 7a source data) (concentration 50, unit not given, time-course reading M137): 0.7873
- Th-T fluorescence of Aβ42 with compound, mean of three wells (Fig. 7a source data) (concentration 50, unit not given, time-course reading M138): 0.78
- Th-T fluorescence of Aβ42 with compound, mean of three wells (Fig. 7a source data) (concentration 50, unit not given, time-course reading M139): 0.7658
- Th-T fluorescence of Aβ42 with compound, mean of three wells (Fig. 7a source data) (concentration 50, unit not given, time-course reading M140): 0.7572
- Th-T fluorescence of Aβ42 with compound, mean of three wells (Fig. 7a source data) (concentration 50, unit not given, time-course reading M141): 0.7413
- Th-T fluorescence of Aβ42 with compound, mean of three wells (Fig. 7a source data) (concentration 50, unit not given, time-course reading M142): 0.7418
